Source: publication PMC10041525, “New Dual Inhibitors of Bacterial Topoisomerases with Broad-Spectrum Antibacterial Activity and In Vivo Efficacy against Vancomycin-Intermediate Staphylococcus aureus” (Journal of Medicinal Chemistry, 2023)
Converted amounts (≈) assume the structure as drawn. Like-named read-outs stand apart in the source and are kept apart here.

System: 100 A. baumannii strains (50 MDR, 50 non-MDR)
Test: MIC broth microdilution at IHMA Europe, panel of 100 strains
Assay type: cell-based
Settings: Acinetobacter baumannii, read-out: MIC

In the case of `CN(C)c1cc(NC(=O)CNC(C)(C)C)c(O)c2c1C[C@H]1C[C@H]3[C@H](N(C)C)C(O)=C(C(N)=O)C(=O)[C@@]3(O)C(O)=C1C2=O` [Tigecycline, tigecycline], the MIC (A. baumannii IHMA 1769393, Lithuania 2018, Non-MDR) is reported as 0.25 µg/mL (≈ 0.427 µM), the MIC (A. baumannii IHMA 1769782, Israel 2018, MDR) is reported as 4 µg/mL (≈ 6.83 µM) and the MIC (A. baumannii IHMA 1769910, Israel 2018, Non-MDR) is reported as 2 µg/mL (≈ 3.41 µM). The MIC (A. baumannii IHMA 1790317, Czech Republic 2018, Non-MDR) was 0.06 µg/mL (≈ 0.102 µM), the MIC (A. baumannii IHMA 1790916, Romania 2018, Non-MDR) was 0.12 µg/mL (≈ 0.205 µM) and the MIC (A. baumannii IHMA 1791877, Israel 2018, MDR) was 2 µg/mL (≈ 3.41 µM). It also gave an MIC (A. baumannii IHMA 1792961, Jordan 2018, MDR) of 2 µg/mL (≈ 3.41 µM), an MIC (A. baumannii IHMA 1795669, Tunisia 2018, Non-MDR) of 0.06 µg/mL (≈ 0.102 µM) and an MIC (A. baumannii IHMA 1814276, Lebanon 2018, MDR) of 4 µg/mL (≈ 6.83 µM). For the same molecule, the MIC (A. baumannii IHMA 1815198, Kuwait 2018, MDR) was 4 µg/mL (≈ 6.83 µM), the MIC (A. baumannii IHMA 1815856, Israel 2018, MDR) was 2 µg/mL (≈ 3.41 µM) and the MIC (A. baumannii IHMA 1821468, South Africa 2018, Non-MDR) was 0.25 µg/mL (≈ 0.427 µM). The MIC (A. baumannii IHMA 1829500, Georgia 2018, Non-MDR) was 0.5 µg/mL (≈ 0.854 µM), the MIC (A. baumannii IHMA 1830924, United Kingdom 2018, Non-MDR) was 0.5 µg/mL (≈ 0.854 µM) and the MIC (A. baumannii IHMA 1849819, Kuwait 2018, MDR) was 4 µg/mL (≈ 6.83 µM). For the same molecule, the MIC (A. baumannii IHMA 1849829, Kuwait 2018, Non-MDR) was 0.25 µg/mL (≈ 0.427 µM), the MIC (A. baumannii IHMA 1857118, Slovenia 2018, Non-MDR) was 0.25 µg/mL (≈ 0.427 µM) and the MIC (A. baumannii IHMA 1863631, France 2018, Non-MDR) was 0.25 µg/mL (≈ 0.427 µM). The MIC (A. baumannii IHMA 1870054, United States 2018, Non-MDR) was 0.12 µg/mL (≈ 0.205 µM), the MIC (A. baumannii IHMA 1884428, Italy 2018, Non-MDR) was 0.25 µg/mL (≈ 0.427 µM) and the MIC (A. baumannii IHMA 1884990, Germany 2018, Non-MDR) was 0.12 µg/mL (≈ 0.205 µM). It also gave an MIC (A. baumannii IHMA 1900538, Turkey 2018, Non-MDR) of 0.25 µg/mL (≈ 0.427 µM), an MIC (A. baumannii IHMA 1913773, Kenya 2018, Non-MDR) of 0.25 µg/mL (≈ 0.427 µM) and an MIC (A. baumannii IHMA 1926285, Qatar 2018, Non-MDR) of 0.12 µg/mL (≈ 0.205 µM). The MIC (A. baumannii IHMA 1926288, Qatar 2018, MDR) was 4 µg/mL (≈ 6.83 µM), the MIC (A. baumannii IHMA 1957343, Portugal 2019, Non-MDR) was 0.12 µg/mL (≈ 0.205 µM) and the MIC (A. baumannii IHMA 1963732, Turkey 2019, MDR) was 4 µg/mL (≈ 6.83 µM). For the same molecule, the MIC (A. baumannii IHMA 1967860, Spain 2019, Non-MDR) was 4 µg/mL (≈ 6.83 µM), the MIC (A. baumannii IHMA 1971673, Latvia 2019, MDR) was 2 µg/mL (≈ 3.41 µM) and the MIC (A. baumannii IHMA 1975075, Israel 2019, Non-MDR) was 0.5 µg/mL (≈ 0.854 µM). It also gave an MIC (A. baumannii IHMA 1977077, Kuwait 2019, Non-MDR) of 0.5 µg/mL (≈ 0.854 µM), an MIC (A. baumannii IHMA 1983151, Greece 2019, MDR) of 2 µg/mL (≈ 3.41 µM) and an MIC (A. baumannii IHMA 1984665, Lithuania 2019, MDR) of 4 µg/mL (≈ 6.83 µM). For the same molecule, the MIC (A. baumannii IHMA 1986678, Turkey 2019, Non-MDR) was 0.5 µg/mL (≈ 0.854 µM), the MIC (A. baumannii IHMA 1986738, Turkey 2019, MDR) was 4 µg/mL (≈ 6.83 µM) and the MIC (A. baumannii IHMA 1987162, Croatia 2019, MDR) was 2 µg/mL (≈ 3.41 µM). For the same molecule, the MIC (A. baumannii IHMA 1993615, Turkey 2019, MDR) was 0.5 µg/mL (≈ 0.854 µM), the MIC (A. baumannii IHMA 1994284, Italy 2019, MDR) was 1 µg/mL (≈ 1.71 µM) and the MIC (A. baumannii IHMA 1995161, Czech Republic 2019, Non-MDR) was 0.12 µg/mL (≈ 0.205 µM). For the same molecule, the MIC (A. baumannii IHMA 1997936, Morocco 2019, Non-MDR) was 0.25 µg/mL (≈ 0.427 µM), the MIC (A. baumannii IHMA 1999178, Belgium 2019, Non-MDR) was 0.25 µg/mL (≈ 0.427 µM) and the MIC (A. baumannii IHMA 2003279, Turkey 2019, MDR) was 2 µg/mL (≈ 3.41 µM). It also gave an MIC (A. baumannii IHMA 2014367, Jordan 2019, Non-MDR) of 0.12 µg/mL (≈ 0.205 µM), an MIC (A. baumannii IHMA 2014931, South Africa 2019, Non-MDR) of 0.25 µg/mL (≈ 0.427 µM) and an MIC (A. baumannii IHMA 2019315, Romania 2019, Non-MDR) of 0.12 µg/mL (≈ 0.205 µM). It also gave an MIC (A. baumannii IHMA 2020360, Croatia 2019, MDR) of 4 µg/mL (≈ 6.83 µM), an MIC (A. baumannii IHMA 2031511, Greece 2019, Non-MDR) of 0.12 µg/mL (≈ 0.205 µM) and an MIC (A. baumannii IHMA 2031524, Greece 2019, MDR) of 1 µg/mL (≈ 1.71 µM). The MIC (A. baumannii IHMA 2034657, Tunisia 2019, Non-MDR) was 0.25 µg/mL (≈ 0.427 µM), the MIC (A. baumannii IHMA 2035089, Serbia 2019, MDR) was 4 µg/mL (≈ 6.83 µM) and the MIC (A. baumannii IHMA 2035134, Serbia 2019, Non-MDR) was 0.12 µg/mL (≈ 0.205 µM). The MIC (A. baumannii IHMA 2038976, Hungary 2019, MDR) was 2 µg/mL (≈ 3.41 µM), the MIC (A. baumannii IHMA 2051503, Serbia 2019, MDR) was 2 µg/mL (≈ 3.41 µM) and the MIC (A. baumannii IHMA 2058329, Slovenia 2019, Non-MDR) was 0.25 µg/mL (≈ 0.427 µM). The MIC (A. baumannii IHMA 2065587, France 2019, Non-MDR) was 0.25 µg/mL (≈ 0.427 µM), the MIC (A. baumannii IHMA 2099294, United Kingdom 2019, Non-MDR) was 0.5 µg/mL (≈ 0.854 µM) and the MIC (A. baumannii IHMA 2129256, Qatar 2019, Non-MDR) was 0.12 µg/mL (≈ 0.205 µM).
